Laboratory results taken from US5747488A, “2-aryl-5,11-dihydro-6H-dipyrido[3,2-B:2',3'-E][1, 4]diazepines and their use in the treatment of HIV infection” (Boehringer Ingelheim Pharmaceuticals, Inc., priority 1996, dated 1998).

Legend:
MTT assay (cytotoxicity) = assay type: cell-based; details: human; H9 cells, five days
Description: In order to roughly assess the cytotoxicity of the compounds provided by the invention, several such compounds were tested in the MTT Assay described below. Compounds having a relatively high CC50 are preferred.
The MTT [3-(4,5-dimethylthiazol-2-yl)-2,5 diphenyl tetrazolium bromide) assay is based on cleavage of tetrazolium bromide by metabolically active cells, resulting in a highly quantitative blue color. This assay has been previously described (1) but has been optimized for the purposes of the testing reported herein.
The H9 cell line (2), an established human lymphoma suspension cell line grown in RPMI 1640 supplemented with 10% fetal bovine serum, is used as the target cell line in the assay. Cells (100 μL) are plated in microtest plate wells at a concentration of 10^5 cells per mL in the presence of varying concentrations of inhibitor. The cells are incubated at 37° C. in a humidified CO2 incubator. Five days later, 20 μL of MTT (5 mg/mL in RPMI 1640, sonicated, 0.2 micron filtered, and stored at 4° C.) is added to each well. After 4 hours additional incubation at 37° C., 60 μL of Triton-X is added to each well and thoroughly mixed to aid the solubilization of the crystals. Absolute ethanol (5 μL) is added to each well and the resulting mixture is incubated for 30 minutes at 60° C. and immediately read on a plate reader (Dynatech) at a wavelength of 570 nm. […]

[1] = target: T1, HIV-1 reverse transcriptase, wild type (WT) (Human immunodeficiency virus type 1 (BRU ISOLATE), UniProt P03367); assay: Reverse transcriptase (RT) assay, wild type enzyme (RNA-dependent DNA polymerase activity); assay type: biochemical, Human Immunodeficiency Virus (HIV-1), LAV strain; details: read-out: RT (WT) Assay % inh. (1 μM)
T1 construct: recombinant clone pBRTprtl+ (vector pIBI21, lac promoter) in E. coli JM109
Description: Utilizing the Reverse Transcriptase (RT) Assay described below, compounds can be tested for their ability to inhibit the RNA-dependent DNA polymerase activity of HIV-1 RT. Certain specific compounds described in the Examples which appear below, were so tested.
Among the enzymes for which Human Immunodeficiency Virus (HIV-1) encodes is a reverse transcriptase (1), so-named because it transcribes a DNA copy from an RNA template. This activity can be quantitatively measured in a cell-free enzyme assay, which has been previously described (2), and is based upon the observation that reverse transcriptase is able to use a synthetic template [poly r(C) primed with oligo d(G)] to transcribe a radio-labelled, acid-precipitable DNA strand utilizing ^3 H-dGTP as a substrate. The assay described below utilizes the wild type (WT) enzyme, which is the predominant form of the enzyme observed in patients infected with HIV-1. Utilization of the mutant RT enzyme (Y181C, prepared by site-directed mutagenesis in which the tyrosine residue at codon 181 has been replaced by a cysteine residue) and analogous assay conditions allows compounds to be evaluated for their effectiveness at inhibiting this mutant enzyme. […]

Compound `CCN1c2ncccc2-c2ncc(C)n2-c2ccc(-c3cn[nH]c3)nc21` [Example 1, 8-Ethyl-1-methyl-10-(4-pyrazolyl)imidazo[2',3':6,5]dipyrido[3,2-b:2',3'-e][1,4]diazepine] has a CC50 at 120 h (MTT assay (cytotoxicity)) greater than 100 µM and an inhibition at 1 µM [1] of 95%.
